Data published in publication PMC7181660, “A novel specific PERK activator reduces toxicity and extends survival in Huntington's disease models” (Scientific Reports, 2020).
Read-outs that look alike come from different tables or passages of the source.

Legend:
Assay in all cases: biochemical
Format in all cases: biochemical
panel of 391 kinases [1] = target: panel of 391 kinases (Homo sapiens, UniProt P29323); details: EPHB2, MK-28 1 µM, ATP 1 µM
panel of 391 kinases [2] = target: panel of 391 kinases (Homo sapiens, UniProt Q02779); details: MLK2/MAP3K10, MK-28 1 µM, ATP 1 µM
panel of 391 kinases [3] = target: panel of 391 kinases (Homo sapiens, UniProt Q6XUX3); details: RIPK5, MK-28 1 µM, ATP 1 µM
panel of 391 kinases [4] = target: panel of 391 kinases (Homo sapiens, UniProt P27361); details: ERK1, MK-28 1 µM, ATP 1 µM
panel of 391 kinases [5] = target: panel of 391 kinases (Homo sapiens, UniProt Q9H3Y6); details: SRMS, MK-28 1 µM, ATP 1 µM
panel of 391 kinases [6] = target: panel of 391 kinases (Homo sapiens, UniProt P21709); details: EPHA1, MK-28 1 µM, ATP 1 µM
panel of 391 kinases [7] = target: panel of 391 kinases (Homo sapiens, UniProt P05771); details: PKCb1, MK-28 1 µM, ATP 1 µM
panel of 391 kinases [8] = target: panel of 391 kinases (Homo sapiens, UniProt Q9BYP7); details: WNK3, MK-28 1 µM, ATP 1 µM
panel of 391 kinases [9] = target: panel of 391 kinases (Homo sapiens, UniProt Q05513); details: PKCzeta, MK-28 1 µM, ATP 1 µM
panel of 391 kinases [10] = target: panel of 391 kinases (Homo sapiens, UniProt O75914); details: PAK3, MK-28 1 µM, ATP 1 µM
panel of 391 kinases [11] = target: panel of 391 kinases (Homo sapiens, UniProt Q5S007); details: LRRK2, MK-28 1 µM, ATP 1 µM
panel of 391 kinases [12] = target: panel of 391 kinases (Homo sapiens, UniProt P08581); details: c-MET, MK-28 1 µM, ATP 1 µM
panel of 391 kinases [13] = target: panel of 391 kinases (Homo sapiens, UniProt P11309); details: PIM1, MK-28 1 µM, ATP 1 µM
panel of 391 kinases [14] = target: panel of 391 kinases (Homo sapiens, UniProt P57059); details: SIK1, MK-28 1 µM, ATP 1 µM
panel of 391 kinases [15] = target: panel of 391 kinases (Homo sapiens, UniProt Q13233); details: MEKK1, MK-28 1 µM, ATP 1 µM
panel of 391 kinases [16] = target: panel of 391 kinases (Homo sapiens, UniProt Q92630); details: DYRK2, MK-28 1 µM, ATP 1 µM
panel of 391 kinases [17] = target: panel of 391 kinases (Homo sapiens, UniProt P49840); details: GSK3a, MK-28 1 µM, ATP 1 µM
panel of 391 kinases [18] = target: panel of 391 kinases (Homo sapiens, UniProt Q8TD19); details: NEK9, MK-28 1 µM, ATP 1 µM
panel of 391 kinases [19] = target: panel of 391 kinases (Homo sapiens, UniProt Q9UQB9); details: Aurora C, MK-28 1 µM, ATP 1 µM
panel of 391 kinases [20] = target: panel of 391 kinases (Homo sapiens, UniProt Q13131); details: compound at 1 µM, single dose in duplicates, 1 µM ATP; for remaining activity at 1 µM: read-out: % Enzyme Activity (relative to DMSO controls)
panel of 391 kinases [21] = target: panel of 391 kinases (Homo sapiens, UniProt P10721); details: c-Kit, MK-28 1 µM, ATP 1 µM
panel of 391 kinases [22] = target: panel of 391 kinases (Homo sapiens, UniProt Q13153); details: PAK1, MK-28 1 µM, ATP 1 µM
panel of 391 kinases [23] = target: panel of 391 kinases (Homo sapiens, UniProt Q00534); details: MK-28 1 µM, ATP 1 µM; for remaining activity at 1 µM: read-out: % Enzyme Activity (relative to DMSO controls)
panel of 391 kinases [24] = target: panel of 391 kinases (Homo sapiens, UniProt P35916); details: FLT4/VEGFR3, MK-28 1 µM, ATP 1 µM
panel of 391 kinases [25] = target: panel of 391 kinases (Homo sapiens, UniProt P25098); details: GRK2, MK-28 1 µM, ATP 1 µM
[26] = read-out: % Enzyme Activity (relative to DMSO controls)

## CN(/N=C\c1ccc(O)c(O)c1)c1nc(-c2ccccc2)cc(-c2ccccc2)n1 [MK-28]
Panel of 391 kinases [1]
  % Enzyme Activity (relative to DMSO controls): 94.59%
Panel of 391 kinases [1]; [26]
  remaining activity at 1 µM: 95.4%
Panel of 391 kinases [2]
  % Enzyme Activity (relative to DMSO controls): 95.47%
Panel of 391 kinases [2]; [26]
  remaining activity at 1 µM: 100%
Panel of 391 kinases [3]
  % Enzyme Activity (relative to DMSO controls): 103.40%
Panel of 391 kinases [3]; [26]
  remaining activity at 1 µM: 105%
Panel of 391 kinases [4]
  % Enzyme Activity (relative to DMSO controls): 99.70%
Panel of 391 kinases [4]; [26]
  remaining activity at 1 µM: 101%
Panel of 391 kinases [5]
  % Enzyme Activity (relative to DMSO controls): 102.96%
Panel of 391 kinases [5]; [26]
  remaining activity at 1 µM: 104%
Panel of 391 kinases [6]
  % Enzyme Activity (relative to DMSO controls): 99.87%
Panel of 391 kinases [6]; [26]
  remaining activity at 1 µM: 102%
Panel of 391 kinases [7]
  % Enzyme Activity (relative to DMSO controls): 108.67%
Panel of 391 kinases [7]; [26]
  remaining activity at 1 µM: 111%
Panel of 391 kinases [8]
  % Enzyme Activity (relative to DMSO controls): 104.23%
Panel of 391 kinases [8]; [26]
  remaining activity at 1 µM: 105%
Panel of 391 kinases [9]
  % Enzyme Activity (relative to DMSO controls): 100.19%
Panel of 391 kinases [9]; [26]
  remaining activity at 1 µM: 100%
Panel of 391 kinases [10]
  % Enzyme Activity (relative to DMSO controls): 116.60%
Panel of 391 kinases [10]; [26]
  remaining activity at 1 µM: 117%
Panel of 391 kinases [11]
  % Enzyme Activity (relative to DMSO controls): 90.69%
Panel of 391 kinases [11]; [26]
  remaining activity at 1 µM: 92.2%
Panel of 391 kinases [12]
  % Enzyme Activity (relative to DMSO controls): 96.37%
Panel of 391 kinases [12]; [26]
  remaining activity at 1 µM: 102%
Panel of 391 kinases [13]
  % Enzyme Activity (relative to DMSO controls): 100.72%
Panel of 391 kinases [13]; [26]
  remaining activity at 1 µM: 101%
Panel of 391 kinases [14]
  % Enzyme Activity (relative to DMSO controls): 83.98%
Panel of 391 kinases [14]; [26]
  remaining activity at 1 µM: 85%
Panel of 391 kinases [15]
  % Enzyme Activity (relative to DMSO controls): 92.45%
Panel of 391 kinases [15]; [26]
  remaining activity at 1 µM: 95.1%
Panel of 391 kinases [16]
  % Enzyme Activity (relative to DMSO controls): 100.55%
Panel of 391 kinases [16]; [26]
  remaining activity at 1 µM: 101%
Panel of 391 kinases [17]
  % Enzyme Activity (relative to DMSO controls): 82.88%
Panel of 391 kinases [17]; [26]
  remaining activity at 1 µM: 83%
Panel of 391 kinases [18]
  % Enzyme Activity (relative to DMSO controls): 96.03%
Panel of 391 kinases [18]; [26]
  remaining activity at 1 µM: 101%
Panel of 391 kinases [19]
  % Enzyme Activity (relative to DMSO controls): 93.97%
Panel of 391 kinases [19]; [26]
  remaining activity at 1 µM: 95.6%
Panel of 391 kinases [20]; kinase AMPK(A1/B1/G1)
  % Enzyme Activity (relative to DMSO controls): 95.82%
  remaining activity at 1 µM: 96.3%
Panel of 391 kinases [20]; kinase AMPK(A1/B1/G2)
  % Enzyme Activity (relative to DMSO controls): 98.77%
  remaining activity at 1 µM: 101%
Panel of 391 kinases [20]; kinase AMPK(A1/B1/G3)
  % Enzyme Activity (relative to DMSO controls): 86.51%
  remaining activity at 1 µM: 87%
Panel of 391 kinases [20]; kinase AMPK(A1/B2/G1)
  % Enzyme Activity (relative to DMSO controls): 106.30%
  remaining activity at 1 µM: 108%
Panel of 391 kinases [21]
  % Enzyme Activity (relative to DMSO controls): 93.67%
Panel of 391 kinases [21]; [26]
  remaining activity at 1 µM: 93.8%
Panel of 391 kinases [22]
  % Enzyme Activity (relative to DMSO controls): 100.75%
Panel of 391 kinases [22]; [26]
  remaining activity at 1 µM: 102%
Panel of 391 kinases [23]; CDK6/cyclin D1
  % Enzyme Activity (relative to DMSO controls): 98.75%
  remaining activity at 1 µM: 102%
Panel of 391 kinases [23]; CDK6/cyclin D3
  % Enzyme Activity (relative to DMSO controls): 86.79%
  remaining activity at 1 µM: 87.6%
Panel of 391 kinases [24]
  % Enzyme Activity (relative to DMSO controls): 92.88%
Panel of 391 kinases [24]; [26]
  remaining activity at 1 µM: 94.1%
Panel of 391 kinases [25]
  % Enzyme Activity (relative to DMSO controls): 99.37%
Panel of 391 kinases [25]; [26]
  remaining activity at 1 µM: 99.8%
